Converted amounts (≈) assume the structure as drawn.
Legend:
Cryptococcus neoformans = test: Antifungal activity against Cryptococcus neoformans; format: functional
Aspergillus fumigatus = test: Antifungal activity against Aspergillus fumigatus; format: functional
Fonsecaea pedrosoi = test: Antifungal activity against Fonsecaea pedrosoi; format: functional
Trichophyton rubrum = test: Antifungal activity against Trichophyton rubrum; format: functional
Candida albicans = test: Antifungal activity against Candida albicans; format: functional
Candida parapsilosis = test: Antifungal activity against Candida parapsilosis; format: functional; conditions: Lodderomyces parapsilosis
Candida tropicalis = test: Antifungal activity against Candida tropicalis; format: functional
Microsporum = test: Antifungal activity against Microsporum lanosum; format: functional
Nannizzia gypsea = test: Antifungal activity against Microsporum gypseum; format: functional
Trichophyton benhamiae = test: Antifungal activity against Trichophyton mentagrophytes; format: functional, Arthroderma benhamiae
Epidermophyton floccosum = test: Antifungal activity against Epidermophyton floccosum; format: functional
Trichophyton violaceum = test: Antifungal activity against Trichophyton violaceum; format: functional
Sporothrix schenckii = test: Antifungal activity against Sporothrix schenckii; format: functional

Row | MIC80 (Cryptococcus neoformans) | MIC80 (Aspergillus fumigatus) | MIC80 (Fonsecaea pedrosoi) | MIC80 (Trichophyton rubrum) | MIC80 (Candida albicans) | MIC80 (Candida parapsilosis) | MIC80 (Candida tropicalis) | MIC80 (Microsporum) | MIC80 (Nannizzia gypsea) | MIC80 (Trichophyton benhamiae) | MIC80 (Epidermophyton floccosum) | MIC80 (Trichophyton violaceum) | MIC80 (Sporothrix schenckii) | SMILES
1 | 0.125 µg/mL (≈ 0.225 µM) | 16 µg/mL (≈ 28.8 µM) | ≤ 0.125 µg/mL | ≤ 0.125 µg/mL | 0.008 µg/mL (≈ 0.0144 µM) | 0.016 µg/mL (≈ 0.0288 µM) | 0.016 µg/mL (≈ 0.0288 µM) | 0.25 µg/mL (≈ 0.449 µM) |  |  |  |  |  | CN(Cc1ccc(NC(=O)c2ccc(Br)cc2)cc1)CC(O)(Cn1cncn1)c1ccc(F)cc1F (stereo unspecified)
2 | 1 µg/mL (≈ 2.09 µM) | 32 µg/mL (≈ 67 µM) | 1 µg/mL (≈ 2.09 µM) | 0.5 µg/mL (≈ 1.05 µM) | 0.031 µg/mL (≈ 0.0649 µM) | 0.0625 µg/mL (≈ 0.131 µM) | 0.125 µg/mL (≈ 0.262 µM) | 4 µg/mL (≈ 8.38 µM) |  |  |  |  |  | CN(Cc1ccc(NC(=O)c2ccccc2)cc1)CC(O)(Cn1cncn1)c1ccc(F)cc1F (stereo unspecified)
3 | ≤ 0.125 µg/mL | 4 µg/mL (≈ 8.79 µM) | 0.25 µg/mL (≈ 0.549 µM) | 1 µg/mL (≈ 2.2 µM) | 0.032 µg/mL (≈ 0.0703 µM) | 0.25 µg/mL (≈ 0.549 µM) | ≤ 0.125 µg/mL | 4 µg/mL (≈ 8.79 µM) | 32 µg/mL (≈ 70.3 µM) | 0.125 µg/mL (≈ 0.275 µM) | < 0.0625 µg/mL | 2 µg/mL (≈ 4.39 µM) | 64 µg/mL (≈ 141 µM) | CN(Cc1ccc(F)cc1Br)CC(O)(Cn1cncn1)c1ccc(F)cc1F (stereo unspecified)
4 | ≤ 0.125 µg/mL | 0.5 µg/mL (≈ 1.1 µM) | ≤ 0.125 µg/mL | 0.25 µg/mL (≈ 0.549 µM) | 0.032 µg/mL (≈ 0.0703 µM) | ≤ 0.125 µg/mL | ≤ 0.125 µg/mL | 1 µg/mL (≈ 2.2 µM) | 32 µg/mL (≈ 70.3 µM) | < 0.0625 µg/mL | < 0.0625 µg/mL | 2 µg/mL (≈ 4.39 µM) | 64 µg/mL (≈ 141 µM) | CN(Cc1ccc(Br)cc1F)CC(O)(Cn1cncn1)c1ccc(F)cc1F (stereo unspecified)
5 | ≤ 0.125 µg/mL | 4 µg/mL (≈ 8.79 µM) | 2 µg/mL (≈ 4.39 µM) | 0.5 µg/mL (≈ 1.1 µM) | 0.032 µg/mL (≈ 0.0703 µM) | ≤ 0.125 µg/mL | ≤ 0.125 µg/mL | 8 µg/mL (≈ 17.6 µM) | 32 µg/mL (≈ 70.3 µM) | 0.5 µg/mL (≈ 1.1 µM) | < 0.0625 µg/mL | 4 µg/mL (≈ 8.79 µM) | 64 µg/mL (≈ 141 µM) | CN(Cc1cc(F)ccc1Br)CC(O)(Cn1cncn1)c1ccc(F)cc1F (stereo unspecified)
6 | ≤ 0.125 µg/mL | 8 µg/mL (≈ 16.5 µM) | ≤ 0.125 µg/mL | ≤ 0.125 µg/mL | 1 µg/mL (≈ 2.06 µM) | 1 µg/mL (≈ 2.06 µM) | ≤ 0.125 µg/mL | < 0.0625 µg/mL | 0.125 µg/mL (≈ 0.258 µM) | < 0.0625 µg/mL | < 0.0625 µg/mL | < 0.0625 µg/mL | 64 µg/mL (≈ 132 µM) | CN(Cc1cccc(I)c1)CC(O)(Cn1cncn1)c1ccc(F)cc1F (stereo unspecified)
7 | 2 µg/mL (≈ 3.91 µM) | 32 µg/mL (≈ 62.5 µM) | 2 µg/mL (≈ 3.91 µM) | 4 µg/mL (≈ 7.81 µM) | 0.0625 µg/mL (≈ 0.122 µM) | 0.25 µg/mL (≈ 0.488 µM) | 0.5 µg/mL (≈ 0.977 µM) | 2 µg/mL (≈ 3.91 µM) |  |  |  |  |  | CN(Cc1ccc(NC(=O)c2ccccc2Cl)cc1)CC(O)(Cn1cncn1)c1ccc(F)cc1F (stereo unspecified)
8 | 0.0625 µg/mL (≈ 0.114 µM) | 16 µg/mL (≈ 29.3 µM) | ≤ 0.125 µg/mL | 0.5 µg/mL (≈ 0.915 µM) | 0.016 µg/mL (≈ 0.0293 µM) | 0.125 µg/mL (≈ 0.229 µM) | 0.5 µg/mL (≈ 0.915 µM) | 0.5 µg/mL (≈ 0.915 µM) |  |  |  |  |  | CN(Cc1ccc(NC(=O)c2ccc(Cl)cc2Cl)cc1)CC(O)(Cn1cncn1)c1ccc(F)cc1F (stereo unspecified)
9 | 0.25 µg/mL (≈ 0.62 µM) | 4 µg/mL (≈ 9.92 µM) | 1 µg/mL (≈ 2.48 µM) | 0.25 µg/mL (≈ 0.62 µM) | 2 µg/mL (≈ 4.96 µM) | 2 µg/mL (≈ 4.96 µM) | 0.25 µg/mL (≈ 0.62 µM) |  |  |  |  |  | 64 µg/mL (≈ 159 µM) | CN(Cc1ccccc1[N+](=O)[O-])CC(O)(Cn1cncn1)c1ccc(F)cc1F (stereo unspecified)
10 | 1 µg/mL (≈ 2.03 µM) | 16 µg/mL (≈ 32.6 µM) | 0.5 µg/mL (≈ 1.02 µM) | ≤ 0.125 µg/mL | 0.031 µg/mL (≈ 0.0631 µM) | 0.0625 µg/mL (≈ 0.127 µM) | 1 µg/mL (≈ 2.03 µM) | 0.25 µg/mL (≈ 0.509 µM) |  |  |  |  |  | Cc1cccc(C(=O)Nc2ccc(CN(C)CC(O)(Cn3cncn3)c3ccc(F)cc3F)cc2)c1 (stereo unspecified)
11 | 0.25 µg/mL (≈ 0.586 µM) | 8 µg/mL (≈ 18.8 µM) | 0.125 µg/mL (≈ 0.293 µM) | 0.5 µg/mL (≈ 1.17 µM) | 0.031 µg/mL (≈ 0.0727 µM) | 2 µg/mL (≈ 4.69 µM) | 1 µg/mL (≈ 2.35 µM) |  |  |  |  |  | 64 µg/mL (≈ 150 µM) | CN(Cc1ccc(C(F)(F)F)cc1)CC(O)(Cn1cncn1)c1ccc(F)cc1F (stereo unspecified)
12 | 0.25 µg/mL (≈ 0.488 µM) | 32 µg/mL (≈ 62.5 µM) | ≤ 0.125 µg/mL | ≤ 0.125 µg/mL | 0.016 µg/mL (≈ 0.0313 µM) | 0.031 µg/mL (≈ 0.0606 µM) | 0.016 µg/mL (≈ 0.0313 µM) | 8 µg/mL (≈ 15.6 µM) |  |  |  |  |  | CN(Cc1ccc(NC(=O)c2ccc(Cl)cc2)cc1)CC(O)(Cn1cncn1)c1ccc(F)cc1F (stereo unspecified)
13 | 0.5 µg/mL (≈ 0.796 µM) | 32 µg/mL (≈ 50.9 µM) | 0.25 µg/mL (≈ 0.398 µM) | 2 µg/mL (≈ 3.18 µM) | 0.002 µg/mL (≈ 0.00318 µM) | 0.008 µg/mL (≈ 0.0127 µM) | 0.25 µg/mL (≈ 0.398 µM) |  |  |  |  |  | 16 µg/mL (≈ 25.5 µM) | CN(Cc1ccc(-n2cnn(Cc3cc(F)ccc3Br)c2=O)cc1)CC(O)(Cn1cncn1)c1ccc(F)cc1F (stereo unspecified)

More lines, now with the values behind:

Row | SMILES | MIC80 (Cryptococcus neoformans) | MIC80 (Aspergillus fumigatus) | MIC80 (Fonsecaea pedrosoi) | MIC80 (Trichophyton rubrum) | MIC80 (Candida albicans) | MIC80 (Candida parapsilosis) | MIC80 (Candida tropicalis) | MIC80 (Microsporum) | MIC80 (Nannizzia gypsea) | MIC80 (Trichophyton benhamiae) | MIC80 (Epidermophyton floccosum) | MIC80 (Trichophyton violaceum) | MIC80 (Sporothrix schenckii)
14 | Cc1ccc(C(=O)Nc2ccc(CN(C)CC(O)(Cn3cncn3)c3ccc(F)cc3F)cc2)cc1 (stereo unspecified) | 0.5 µg/mL (≈ 1.02 µM) | 32 µg/mL (≈ 65.1 µM) | 0.25 µg/mL (≈ 0.509 µM) | ≤ 0.125 µg/mL | 0.016 µg/mL (≈ 0.0326 µM) | 0.031 µg/mL (≈ 0.0631 µM) | 0.016 µg/mL (≈ 0.0326 µM) | 2 µg/mL (≈ 4.07 µM) |  |  |  |  | 
15 | CC(=O)N1CCN(c2ccc(OCC3COC(Cn4ccnc4)(c4ccc(Cl)cc4Cl)O3)cc2)CC1 (stereo unspecified) [KETOCONAZOLE] | ≤ 0.125 µg/mL | 1 µg/mL (≈ 1.88 µM) | ≤ 0.125 µg/mL | ≤ 0.125 µg/mL | 0.0625 µg/mL (≈ 0.118 µM) | ≤ 0.125 µg/mL | ≤ 0.125 µg/mL | < 0.0625 µg/mL | < 0.0625 µg/mL | < 0.0625 µg/mL | < 0.0625 µg/mL | 0.25 µg/mL (≈ 0.47 µM) | 0.5 µg/mL (≈ 0.941 µM)
16 | CN(C/C=C/C#CC(C)(C)C)Cc1cccc2ccccc12 [TERBINAFINE] | 4 µg/mL (≈ 13.7 µM) | 0.25 µg/mL (≈ 0.858 µM) | ≤ 0.125 µg/mL | ≤ 0.125 µg/mL | 16 µg/mL (≈ 54.9 µM) | 16 µg/mL (≈ 54.9 µM) | 16 µg/mL (≈ 54.9 µM) | 32 µg/mL (≈ 110 µM) | 0.5 µg/mL (≈ 1.72 µM) | > 32 µg/mL | > 32 µg/mL | 4 µg/mL (≈ 13.7 µM) | 2 µg/mL (≈ 6.86 µM)
17 | CN(Cc1ccc(NC(=O)c2cccc([N+](=O)[O-])c2)cc1)CC(O)(Cn1cncn1)c1ccc(F)cc1F (stereo unspecified) | 0.5 µg/mL (≈ 0.957 µM) | 64 µg/mL (≈ 122 µM) | 0.5 µg/mL (≈ 0.957 µM) | 0.25 µg/mL (≈ 0.478 µM) | 16 µg/mL (≈ 30.6 µM) | 16 µg/mL (≈ 30.6 µM) | 4 µg/mL (≈ 7.66 µM) | 8 µg/mL (≈ 15.3 µM) |  |  |  |  | 
18 | CN(Cc1ccc(NC(=O)c2ccc(I)cc2)cc1)CC(O)(Cn1cncn1)c1ccc(F)cc1F (stereo unspecified) | ≤ 0.031 µg/mL | > 64 µg/mL | ≤ 0.125 µg/mL | ≤ 0.125 µg/mL | 0.0625 µg/mL (≈ 0.104 µM) | 0.5 µg/mL (≈ 0.829 µM) | 0.25 µg/mL (≈ 0.414 µM) | ≤ 0.125 µg/mL |  |  |  |  | 
19 | CN(Cc1ccc(NC(=O)c2ccc([N+](=O)[O-])cc2)cc1)CC(O)(Cn1cncn1)c1ccc(F)cc1F (stereo unspecified) | 0.5 µg/mL (≈ 0.957 µM) | > 64 µg/mL | 0.25 µg/mL (≈ 0.478 µM) | 0.5 µg/mL (≈ 0.957 µM) | 0.0625 µg/mL (≈ 0.12 µM) | 0.125 µg/mL (≈ 0.239 µM) | 0.5 µg/mL (≈ 0.957 µM) | 4 µg/mL (≈ 7.66 µM) |  |  |  |  | 
20 | CN(Cc1ccc(-n2cnn(CC(=O)c3ccc(F)cc3)c2=O)cc1)CC(O)(Cn1cncn1)c1ccc(F)cc1F (stereo unspecified) | 1 µg/mL (≈ 1.73 µM) | 64 µg/mL (≈ 111 µM) | 0.0625 µg/mL (≈ 0.108 µM) | 2 µg/mL (≈ 3.46 µM) | 0.004 µg/mL (≈ 0.00693 µM) | 0.06 µg/mL (≈ 0.104 µM) | 0.0625 µg/mL (≈ 0.108 µM) |  |  |  |  |  | 64 µg/mL (≈ 111 µM)
21 | CN(Cc1ccc(-n2cnn(Cc3ccc([N+](=O)[O-])cc3)c2=O)cc1)CC(O)(Cn1cncn1)c1ccc(F)cc1F (stereo unspecified) | 16 µg/mL (≈ 27.8 µM) | 64 µg/mL (≈ 111 µM) | 4 µg/mL (≈ 6.94 µM) | 16 µg/mL (≈ 27.8 µM) | 0.0625 µg/mL (≈ 0.108 µM) | 0.25 µg/mL (≈ 0.434 µM) | 0.0625 µg/mL (≈ 0.108 µM) |  |  |  |  |  | 64 µg/mL (≈ 111 µM)
22 | CN(Cc1ccc(-n2cnn(Cc3ccccc3)c2=O)cc1)CC(O)(Cn1cncn1)c1ccc(F)cc1F (stereo unspecified) | 64 µg/mL (≈ 120 µM) | 64 µg/mL (≈ 120 µM) | 0.5 µg/mL (≈ 0.941 µM) | 16 µg/mL (≈ 30.1 µM) | 0.031 µg/mL (≈ 0.0583 µM) | 0.016 µg/mL (≈ 0.0301 µM) | 1 µg/mL (≈ 1.88 µM) |  |  |  |  |  | 64 µg/mL (≈ 120 µM)
